{"source": "paper PMC10850501", "about": "(Nature Communications, 2024)", "key": {"[1]": {"system": "SARS-CoV-2 live virus (B.1 lineage), Vero E6 cells", "format": "cell-based"}, "[2]": {"test": "Stability testing by HPLC / LC-MS", "format": "physicochemical", "procedure": "Chromatographic analyses were performed on an analytical high-pressure liquid chromatography system (HPLC) with MassLynx software (Version 4.1). Runs were carried out on a Zorbax C3 column (5 µm, 150 mm × 4.6 mm) with a 1.0 mL/min flow rate. The mobile phase A was 0.1% trifluoroacetic acid in MilliQ water and mobile phase B was 0.1% trifluoroacetic acid in acetonitrile. Gradients started with mobile phase A at 75% and ran at a 1% ramp to 65% mobile phase B. Samples were diluted using 3:7 ACN:MilliQ water to a concentration of 1.0 mg/mL and then passed through a 0.22 μm syringe filter before injecting 30 μL of the sample. The column and autosampler were maintained at 40 °C and 25 °C, respectively. A Waters 2487 UV detector monitored 215 nm, and mass spectra were collected from 50 to 3000 AMU. The capillary voltage was 3.00 kV, cone voltage was 30.00 V, extractor voltage was 3.00 V, RF lens voltage was 0.1 V, source temperature was 100 °C, cone gas flow was 50.0 L/h, and desolvation gas flow was 500 L/h[30],[88] for the electrospray source.\n[…] The stability of peptide samples was then measured using HPLC[87]."}}, "note": "Peptide text beside a SMILES is read from it."}
{"smiles": "CC[C@H](C)[C@H](NC(=O)[C@H](Cc1ccc(O)cc1)NC(=O)[C@@H](NC(=O)[C@H](CCCCN)NC(=O)[C@H](Cc1ccc(O)cc1)NC(=O)[C@H](CCC(N)=O)NC(=O)CNC(=O)[C@H](CCC(=O)O)NC(=O)[C@H](CC(C)C)NC(=O)[C@H](CO)NC(=O)[C@H](CC(C)C)NC(=O)[C@H](CO)NC(=O)[C@H](CC(C)C)NC(=O)[C@H](CO)NC(=O)[C@H](CC(C)C)NC(=O)[C@H](CO)NC(=O)[C@H](CC(C)C)NC(=O)[C@H](CO)NC(=O)[C@H](CC(C)C)NC(=O)[C@H](CO)NC(=O)[C@H](CCC(=O)O)NC(C)=O)[C@@H](C)O)C(=O)N[C@@H](CC(=O)O)C(=O)N[C@@H](CCCCN)C(=O)N[C@@H](CC(N)=O)C(=O)N[C@@H](CC(N)=O)C(=O)N[C@@H](Cc1c[nH]cn1)C(=O)N[C@@H](Cc1ccc(O)cc1)C(=O)N[C@@H](C)C(=O)N[C@@H](CCC(=O)O)C(=O)N[C@@H](CC(=O)O)C(=O)N[C@@H](CCC(=O)O)C(=O)N[C@@H](CCCNC(=N)N)C(=O)N[C@@H](Cc1ccc(O)cc1)C(=O)N[C@@H](CCCCN)C(N)=O", "note": "[ESBP3] (Ac-ESLSLSLSLSLSLEGQYKTYIDKNNHYAEDERYK-NH2)", "values": [{"measurement": "Comparative, Average", "setting": "[1]", "result": 66.6154}, {"measurement": "inhibition of live virus, in words", "setting": "[1]", "result": "dose-dependent inhibition of live virus"}, {"measurement": "live virus plaque inhibition, in words", "setting": "[1]", "result": "no major differences"}, {"measurement": "stability of lyophilized peptide, in words", "setting": "[2]; -20 °C, 4 °C, 25 °C and 37°C over 10 weeks, HPLC/LC-MS", "result": "exceptional"}, {"measurement": "stability, in words", "setting": "[2]; lyophilized form and in formulation at a variety of temperatures over 12 weeks, HPLC", "result": "excellent stability"}, {"measurement": "degradation in aqueous formulation, in words", "setting": "[2]; over 10 weeks, LC-MS", "result": "minimal"}]}
